Literature values as cited in patent publication EP0893690B1, “Detection of mycotoxins by flow-through membrane-based enzyme immunoassay” (priority 1997, dated 1999).

Key:
[1] = target: monoclonal anti-OA antibody (IgG1 with kappa light chains); conditions: association constant of the anti-OA antibody for its antigen OA; read-out: affinity constant (converted)
[2] = test system: monoclonal anti-OA antibody (IgG1 with kappa light chains); conditions: relative to OA; called weak

| Structure (SMILES) | Kd [1] | cross-reaction [2] |
| --- | --- | --- |
| C[C@@H]1Cc2c(Cl)cc(C(=O)N[C@@H](Cc3ccccc3)C(=O)O)c(O)c2C(=O)O1 [OA, ochratoxin A] | 0.128 nM |  |
| C[C@@H]1Cc2ccc(C(=O)N[C@@H](Cc3ccccc3)C(=O)O)c(O)c2C(=O)O1 [ochratoxin B] |  | 9.3% |
